Measured values: patent US12616192B2, “Compositions and methods for preserving or increasing platelet function” (Washington University, priority 2021, dated 2026)
Where two headings read alike, the source gives them in different places.

Key:
[1] = tested on: platelet concentrates (CS-PLT); assay: occlusive clot formation in a collagen-coated stenotic microfluidic chamber (microfluidic model of occlusion); type: cell-based; details: for time to occlude the microfluidic channel versus non-supplemented CS-PLT: 500 μM taurine at the beginning of storage
Protocol: Next, the ability of the platelet concentrates to form an occlusive clot against an arterial pressure head in a stenotic microfluidic chamber coated with collagen was analyzed (FIG. 2). The important variable/metric extracted from this platelet function is the occlusion area under the curve, or OAUC; a larger OAUC implies faster and more robust occlusion, and thus improved hemostatic platelet function.
To determine if this was the case, experiments were performed to supplement CS-PLT with taurine during storage, with the hypothesis that the supplemental (or “extra”) taurine would lead to inhibition of aggregation, as similar to the aforementioned reports from the literature. Next, the platelet concentrates were supplemented at the beginning of storage with 500 μM taurine, and assayed for alterations in function using a microfluidic model of occlusion.

platelets [2] = details: rats fed taurine; cited from earlier work
platelets [3] = details: in vitro taurine addition; cited from earlier work
platelets [4] = details: cited from earlier work

## NCCS(=O)(=O)O [taurine, 2-aminoethanesulfonic acid]
[1]; CS-PLT supplemented with 500 μM taurine at the beginning of storage (TaurSTORAGE)
  platelet aggregation (shift of occlusion curves, OAUC): increased platelet aggregation
[1]; D7 CS-PLT
  time to occlude the microfluidic channel versus non-supplemented CS-PLT: half of the time
[1]; D14 CS-PLT
  time to occlude the microfluidic channel versus non-supplemented CS-PLT: half of the time
[1]; D14 non-supplemented CS-PLT, exogenous taurine 500 μM added just prior to assessment (TaurASSAY)
  occlusion curve phenotype: middle phenotype
[1]; taurine supplementation during platelet concentrate storage
  hemostatic function under physiologically relevant flow: robustly increases hemostatic function
Platelets [2]
  ex vivo platelet aggregation: reduced platelet aggregation
Platelets [3]
  platelet aggregation: inhibit platelet aggregation
Platelets [4]; 1989 study, taurine supplementation in humans
  ex vivo platelet aggregation: reduced aggregation
Platelets [4]; 2010 study, healthy human donors that drank taurine-containing solutions
  ex vivo platelet aggregation: increased ex vivo aggregation
